Test results as given in patent US12157741B2, “Macrocyclic inhibitors of DYRK1A” (DANA-FARBER CANCER INSTITUTE, INC., priority 2018, dated 2024).

Columns and labels:
various enzymes [1] = biological target: various enzymes (Homo sapiens, UniProt P00533, DELINS747-751S); settings: EGFR(L747-T751del, Sins); 1 uM
Procedure: (§1) Ambit profiling from Eurofins (formerly Discoverx) was conducted in accordance with the manufacturer's instructions.

various enzymes [2] = biological target: T1, various enzymes (Homo sapiens, UniProt Q13873); settings: BMPR2; 1 uM
T1 sequence (Q13873 27-1038): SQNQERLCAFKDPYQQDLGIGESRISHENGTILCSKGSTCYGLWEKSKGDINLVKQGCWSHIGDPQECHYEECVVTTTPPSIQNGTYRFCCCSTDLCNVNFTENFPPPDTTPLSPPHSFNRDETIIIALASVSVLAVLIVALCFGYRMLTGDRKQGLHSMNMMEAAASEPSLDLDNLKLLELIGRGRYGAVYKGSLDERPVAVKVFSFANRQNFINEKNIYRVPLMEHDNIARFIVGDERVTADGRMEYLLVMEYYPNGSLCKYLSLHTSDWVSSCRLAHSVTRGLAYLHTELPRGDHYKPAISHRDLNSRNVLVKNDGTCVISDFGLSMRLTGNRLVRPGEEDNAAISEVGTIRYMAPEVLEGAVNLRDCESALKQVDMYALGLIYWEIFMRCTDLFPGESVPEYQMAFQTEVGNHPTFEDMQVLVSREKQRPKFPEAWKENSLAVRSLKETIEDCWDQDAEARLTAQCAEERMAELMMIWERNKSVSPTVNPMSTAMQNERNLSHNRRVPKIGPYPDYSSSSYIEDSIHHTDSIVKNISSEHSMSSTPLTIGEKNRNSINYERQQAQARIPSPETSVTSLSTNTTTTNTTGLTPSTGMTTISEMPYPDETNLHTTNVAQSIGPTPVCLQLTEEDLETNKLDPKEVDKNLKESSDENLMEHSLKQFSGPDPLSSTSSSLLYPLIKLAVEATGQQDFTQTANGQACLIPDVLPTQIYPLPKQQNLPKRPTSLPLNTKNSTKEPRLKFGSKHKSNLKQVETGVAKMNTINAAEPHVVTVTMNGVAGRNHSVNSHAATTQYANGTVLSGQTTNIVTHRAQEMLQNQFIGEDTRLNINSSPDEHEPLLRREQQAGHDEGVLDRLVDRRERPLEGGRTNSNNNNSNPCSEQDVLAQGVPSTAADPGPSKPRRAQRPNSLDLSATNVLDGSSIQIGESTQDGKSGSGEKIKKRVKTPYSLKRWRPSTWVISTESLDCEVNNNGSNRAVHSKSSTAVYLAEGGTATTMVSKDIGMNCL
Procedure: as §1

various enzymes [3] = biological target: T2, various enzymes (Homo sapiens, UniProt Q9NRM7); settings: LATS2; 1 uM
T2 sequence (Q9NRM7 1-1088): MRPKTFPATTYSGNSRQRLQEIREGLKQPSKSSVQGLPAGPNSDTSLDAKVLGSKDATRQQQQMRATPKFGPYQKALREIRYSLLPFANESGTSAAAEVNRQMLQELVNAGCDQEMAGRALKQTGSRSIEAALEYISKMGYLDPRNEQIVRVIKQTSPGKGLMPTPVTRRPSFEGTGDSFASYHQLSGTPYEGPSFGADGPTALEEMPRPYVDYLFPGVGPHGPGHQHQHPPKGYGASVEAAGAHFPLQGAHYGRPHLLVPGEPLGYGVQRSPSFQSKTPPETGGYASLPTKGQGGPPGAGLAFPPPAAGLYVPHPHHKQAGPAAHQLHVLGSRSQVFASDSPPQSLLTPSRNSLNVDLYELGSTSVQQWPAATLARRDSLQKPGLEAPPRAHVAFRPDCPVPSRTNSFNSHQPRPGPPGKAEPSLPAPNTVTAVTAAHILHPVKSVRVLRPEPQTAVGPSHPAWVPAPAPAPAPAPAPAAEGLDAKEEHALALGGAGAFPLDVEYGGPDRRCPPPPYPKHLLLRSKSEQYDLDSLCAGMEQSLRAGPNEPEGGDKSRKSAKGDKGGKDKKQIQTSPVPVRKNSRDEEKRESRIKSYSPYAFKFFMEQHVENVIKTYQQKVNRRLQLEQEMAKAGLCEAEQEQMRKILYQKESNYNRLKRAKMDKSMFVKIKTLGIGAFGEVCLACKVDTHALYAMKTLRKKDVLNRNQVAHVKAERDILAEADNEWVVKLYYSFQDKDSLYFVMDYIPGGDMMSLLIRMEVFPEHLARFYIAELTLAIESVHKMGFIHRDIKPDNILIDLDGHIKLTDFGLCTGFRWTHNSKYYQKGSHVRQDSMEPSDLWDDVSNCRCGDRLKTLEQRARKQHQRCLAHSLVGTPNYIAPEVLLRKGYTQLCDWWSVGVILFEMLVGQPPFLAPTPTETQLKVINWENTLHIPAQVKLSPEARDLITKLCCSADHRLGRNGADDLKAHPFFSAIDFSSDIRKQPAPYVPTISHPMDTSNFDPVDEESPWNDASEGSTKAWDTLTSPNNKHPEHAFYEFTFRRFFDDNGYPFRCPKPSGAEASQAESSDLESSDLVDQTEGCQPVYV
Procedure: as §1

various enzymes [4] = biological target: various enzymes (Homo sapiens, UniProt Q9Y2K2); settings: QSK; 1 uM
Chain of various enzymes (Homo sapiens, UniProt Q9Y2K2) (Q9Y2K2 whole entry): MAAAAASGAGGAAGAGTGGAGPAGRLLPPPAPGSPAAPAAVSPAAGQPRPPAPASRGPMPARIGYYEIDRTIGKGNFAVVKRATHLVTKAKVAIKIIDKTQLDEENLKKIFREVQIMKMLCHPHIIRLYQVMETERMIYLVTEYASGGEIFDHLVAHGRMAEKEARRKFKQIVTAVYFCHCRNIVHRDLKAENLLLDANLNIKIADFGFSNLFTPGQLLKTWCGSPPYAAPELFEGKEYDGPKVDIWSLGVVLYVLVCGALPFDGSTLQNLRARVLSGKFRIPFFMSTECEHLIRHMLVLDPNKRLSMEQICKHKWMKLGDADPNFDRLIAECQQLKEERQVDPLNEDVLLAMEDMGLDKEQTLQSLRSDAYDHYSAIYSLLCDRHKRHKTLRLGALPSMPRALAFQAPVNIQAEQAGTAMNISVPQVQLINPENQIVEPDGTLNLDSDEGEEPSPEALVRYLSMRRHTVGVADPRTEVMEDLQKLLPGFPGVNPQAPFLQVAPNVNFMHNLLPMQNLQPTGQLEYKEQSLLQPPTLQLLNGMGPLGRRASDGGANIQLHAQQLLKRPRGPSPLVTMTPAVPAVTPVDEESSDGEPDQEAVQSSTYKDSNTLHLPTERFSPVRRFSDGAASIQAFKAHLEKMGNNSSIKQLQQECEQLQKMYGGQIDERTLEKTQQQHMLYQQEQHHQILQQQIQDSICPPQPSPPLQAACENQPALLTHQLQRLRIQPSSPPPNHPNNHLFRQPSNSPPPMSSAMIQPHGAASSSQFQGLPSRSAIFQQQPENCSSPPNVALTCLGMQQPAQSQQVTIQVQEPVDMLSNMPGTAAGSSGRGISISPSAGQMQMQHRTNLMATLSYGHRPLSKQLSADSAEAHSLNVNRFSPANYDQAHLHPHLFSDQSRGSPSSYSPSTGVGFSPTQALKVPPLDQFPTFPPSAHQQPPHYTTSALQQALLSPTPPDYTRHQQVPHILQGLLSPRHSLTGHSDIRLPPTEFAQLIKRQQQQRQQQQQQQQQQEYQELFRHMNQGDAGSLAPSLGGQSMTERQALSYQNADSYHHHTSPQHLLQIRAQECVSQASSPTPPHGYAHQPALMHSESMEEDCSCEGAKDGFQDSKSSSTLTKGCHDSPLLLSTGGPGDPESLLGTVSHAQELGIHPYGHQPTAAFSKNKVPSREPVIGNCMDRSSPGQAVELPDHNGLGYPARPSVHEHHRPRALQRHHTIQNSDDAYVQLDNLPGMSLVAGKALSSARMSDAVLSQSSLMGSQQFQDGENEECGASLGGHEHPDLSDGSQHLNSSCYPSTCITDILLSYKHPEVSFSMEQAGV
Procedure: as §1

CN1Cc2nn(C)cc2-c2cnc3[nH]cc(c3c2)-c2cnn(c2)CCCC1=O [Compound 41, (Z)-31,5-dimethyl-11H,21H,31H-5-aza-2(3,5)-pyrrolo[2,3-b]pyridina-1(4,1),3(4,3)-dipyrazolacyclononaphan-6-one]
Ambit profiling (various enzymes [1]): 100
Ambit profiling (various enzymes [2]): 4.1
Ambit profiling (various enzymes [3]): 63
Ambit profiling (various enzymes [4]): 89

CN1Cc2nn(C)c(C#N)c2-c2cnc3[nH]cc(c3c2)-c2cn(nc2C(F)(F)F)CCCC1=O [Compound 48, (Z)-31,5-dimethyl-6-oxo-13-(trifluoromethyl)-11H,21H,31H-5-aza-2(3,5)-pyrrolo[2,3-b]pyridina-1(4,1),3(4,3)-dipyrazolacyclononaphane-35-carbonitrile]
Ambit profiling (various enzymes [1]): 50
Ambit profiling (various enzymes [2]): 85
Ambit profiling (various enzymes [3]): 100
Ambit profiling (various enzymes [4]): 100
